pEC50, pKi: −log10 of the molar value. Where two headings read alike, the source gives them in different places.
Tests used:
adrenergic α2 receptor [1] = molecular target: T1, adrenergic α2 receptor (Rattus norvegicus, UniProt P22909); test: Adrenergic α2 in vitro functional test (rat vas deferens, inhibition of twitch); assay type: biochemical
T1 sequence (P22909 1-465): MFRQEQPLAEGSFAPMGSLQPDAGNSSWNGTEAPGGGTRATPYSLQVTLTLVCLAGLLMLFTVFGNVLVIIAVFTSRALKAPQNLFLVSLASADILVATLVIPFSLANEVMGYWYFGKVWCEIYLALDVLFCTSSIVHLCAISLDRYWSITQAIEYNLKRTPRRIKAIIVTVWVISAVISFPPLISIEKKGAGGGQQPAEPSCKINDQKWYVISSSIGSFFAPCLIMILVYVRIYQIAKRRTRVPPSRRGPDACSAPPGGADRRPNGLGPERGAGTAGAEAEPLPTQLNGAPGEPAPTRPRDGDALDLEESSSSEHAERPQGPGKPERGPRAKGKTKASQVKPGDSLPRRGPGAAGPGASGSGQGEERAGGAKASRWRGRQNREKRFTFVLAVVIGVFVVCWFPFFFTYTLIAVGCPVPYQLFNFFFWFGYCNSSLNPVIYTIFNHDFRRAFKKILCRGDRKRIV
Method: (§1) Vasa deferentia from male Sprague-Dawley rats weighing between 150-250 g were removed and placed in isolated organ baths containing Krebs-Henseleitsolution under a resting tension of 1 g. All other set up conditions were identical to those used for the mouse was deferens. Tissues were pretreated with propranolol (1 μM), ascorbic acid (100 μM) and the α1 -adrenergic antagonist prazosin (0.3 or 1 μM) for 60 min before the addition of test compound.

Dopamine D2 receptor [2] = molecular target: Dopamine D2 receptor (Bos taurus, UniProt P20288); test: biochemical; assay type: binding, bovine
Chain of Dopamine D2 receptor (P20288 whole entry): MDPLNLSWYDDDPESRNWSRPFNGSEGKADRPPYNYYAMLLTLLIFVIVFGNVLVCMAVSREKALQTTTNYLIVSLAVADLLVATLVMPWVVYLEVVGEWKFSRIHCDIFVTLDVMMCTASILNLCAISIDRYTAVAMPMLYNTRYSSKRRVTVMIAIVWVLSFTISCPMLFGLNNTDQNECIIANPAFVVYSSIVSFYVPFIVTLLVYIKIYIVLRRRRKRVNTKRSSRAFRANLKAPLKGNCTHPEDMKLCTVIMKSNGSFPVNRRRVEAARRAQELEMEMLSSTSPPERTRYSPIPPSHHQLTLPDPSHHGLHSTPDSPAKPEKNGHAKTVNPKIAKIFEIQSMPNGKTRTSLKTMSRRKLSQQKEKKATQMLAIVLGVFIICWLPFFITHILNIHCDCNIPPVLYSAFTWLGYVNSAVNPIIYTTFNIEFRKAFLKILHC
Method: (§2) Membranes were prepared using a Brinkmann Polytron and collected by centrifugation. Membrane sources were bovine caudate (D2,D1) or rat cortex (α2). The membranes were washed, resuspended, and incubated at 37° C. for 30 min. in either the presence (rat cortex) of 1 μ/ml adenosine deaminase or absence (bovine caudate) of 0.1 μ/ml adenosine deaminase. Membranes were centrifuged, washed once and frozen at -70° C. until used. Immediately before use, the membranes were thawed, washed once, and resuspended to a final concentration of 0.5-2 mg/ml. Assays were initiated by addition of membranes. For D2 and D1 assays, the radioligands and conditions used were ^3 H-Spiperone (RT, 75 min.) and ^3 H-SCH23390 (37° C., 15 min.), respectively. For α2 assays, ^3 H-PAC (RT, 30 min.) was used Assays were terminated by filtration using a Brandel cell harvester over Whatman GF/B filters that had been pretreated with 0.1% polyethylenimine. […]

Dopamine D1 receptor = Dopamine D1 receptor (Bos taurus, UniProt Q95136); test: biochemical; assay type: binding, bovine
Chain of Dopamine D1 receptor (Q95136 whole entry): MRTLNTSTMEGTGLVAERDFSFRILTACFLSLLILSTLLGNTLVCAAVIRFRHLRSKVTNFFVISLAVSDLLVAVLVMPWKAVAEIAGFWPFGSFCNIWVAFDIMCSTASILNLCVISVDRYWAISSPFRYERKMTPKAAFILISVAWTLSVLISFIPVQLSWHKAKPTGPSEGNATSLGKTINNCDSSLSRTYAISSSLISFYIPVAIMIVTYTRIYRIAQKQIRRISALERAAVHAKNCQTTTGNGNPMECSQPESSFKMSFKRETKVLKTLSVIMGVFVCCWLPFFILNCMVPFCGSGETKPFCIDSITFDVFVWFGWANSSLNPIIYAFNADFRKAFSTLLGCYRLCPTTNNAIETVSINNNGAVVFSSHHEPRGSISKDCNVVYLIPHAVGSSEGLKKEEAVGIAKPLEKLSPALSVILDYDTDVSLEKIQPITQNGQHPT
Method: as §2

dopamine D2 receptor [3] = molecular target: dopamine D2 receptor (Mus musculus, UniProt P61168); test: biochemical; assay type: biochemical
Chain of dopamine D2 receptor (P61168 whole entry): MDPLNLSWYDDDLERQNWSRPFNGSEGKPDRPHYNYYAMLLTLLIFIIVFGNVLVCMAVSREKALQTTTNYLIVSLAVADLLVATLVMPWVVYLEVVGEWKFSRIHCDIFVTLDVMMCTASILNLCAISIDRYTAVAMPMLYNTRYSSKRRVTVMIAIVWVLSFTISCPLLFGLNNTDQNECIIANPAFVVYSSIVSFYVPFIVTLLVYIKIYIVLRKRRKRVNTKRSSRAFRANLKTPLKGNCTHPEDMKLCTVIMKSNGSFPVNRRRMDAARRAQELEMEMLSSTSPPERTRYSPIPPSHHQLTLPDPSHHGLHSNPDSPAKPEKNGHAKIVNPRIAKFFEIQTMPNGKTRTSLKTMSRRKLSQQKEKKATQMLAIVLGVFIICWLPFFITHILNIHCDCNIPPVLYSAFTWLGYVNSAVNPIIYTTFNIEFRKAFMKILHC
Method: Vasa deferentia from male BALB/C mice weighing approximately 30 g were removed and placed in isolated organ baths containing magnesium-free modified Krebs-Henseleit solution which was gassed with 95% O2 and 5% CO2 and maintained at 37° C. Tissues were set up under resting tension of 0.5 g and stimulated electrically at 60 volts, 0.1 Hz and 1 msec duration to produce a series of twitch responses. Tissues were pretreated with propranolol (1 μM) to block β-adrenoceptors, idazoxan (3 μM) to block α2 -adrenoceptors receptors, and ascorbic acid (100 μM) for 60 min before the addition of test compound.

[4] = system: denervated supersensitive postsynaptic dopamine receptors; test: In vivo functional test: contralateral circling in rats with unilateral 6-hydroxydopamine lesions of the substantia nigra; parameters: species or system rat; conditions: contralateral circling, rats, unilateral 6-hydroxydopamine lesion
Source text: Dopamine agonists produce contralateral circling behavior in rats in which unilateral lesions of the substantial nigra are made by prior injection of 6-hydroxydopamine. The circling is thought to be mediated by stimulation of denervated supersensitive postsynaptic dopamine receptors (Marshall and Ungerstedt, 1977, Eur. J. Pharmacol., 41:361-367).

adrenergic α2 receptor [5] = molecular target: adrenergic α2 receptor (Rattus norvegicus, UniProt P22909); test: Adrenergic α2 in vitro functional test (rat vas deferens, inhibition of twitch); assay type: biochemical; remark: listed apart in the source
Method: as §1

[6] = concentration that produces 50% of the maximal inhibition of twitch, rat vas deferens, read-out: a2 A50
[7] = bovine caudate membranes, 3H-Spiperone, RT, 75 min, read-out: D2 K1
[8] = bovine caudate membranes, 3H-SCH23390, 37° C., 15 min, read-out: D1 K1
[9] = concentration that produces 50% of the maximal inhibition of twitch, mouse vas deferens, read-out: D2 A50

Row | SMILES | Selectivity Ratio (D1 K1/D2 K1) (Dopamine D2 receptor [2]) | Specificity Ratio (a2 A50/D2 A50) (dopamine D2 receptor [3]) | pEC50 (adrenergic α2 receptor [1]; [6]) | pKi (Dopamine D2 receptor [2]; [7]) | pKi (Dopamine D1 receptor; [8]) | pEC50 (dopamine D2 receptor [3]; [9]) | pEC50 (adrenergic α2 receptor [1]) | pKi (Dopamine D2 receptor [2]) | pKi (Dopamine D1 receptor) | pEC50 (dopamine D2 receptor [3]) | ED50 [4] | pEC50 (adrenergic α2 receptor [5])
1 | CCCN(CCC)C1CCc2c(O)cccc2C1 (stereo not shown) [Example 39, 5-hydroxy-2-(di-n-propyl)aminotetralin, reference compound] | 5 | 120 |  |  |  |  | 6.59 | 6.10 | 5.42 | 8.67 | 0.010 µmol/kg | 
2 | CCCN(CCCOC)[C@H]1CCc2c(O)cccc2C1 [Example 41, (S)-5,6,7,8-tetrahydro-6-[(3-methoxypropyl)propylamino]-l-naphthalenol, reference compound] | 14 | 257 | 6.63 | 6.10 | 4.96 | 9.04 |  |  |  |  | 0.020 µmol/kg | 
3 | CCCCOCCN(CCC)[C@H]1CCc2c(ccc(O)c2O)C1 [Example 8, (S)-6-[[2-(butoxy)ethyl]propylamino]-5,6,7,8-tetrahydro-1,2-naphthalenediol] | 52 | 398 | 6.97 | 6.95 | 5.23 | 9.57 |  |  |  |  | 0.004 µmol/kg | 
4 | CCCN(CCOCC)[C@H]1CCc2c(ccc(O)c2O)C1 [Example 2, (S)-6-[[2-(ethoxy)ethyl]propylamino]-5,6,7,8-tetrahydro-1,2-naphthalenediol] | 20 | 45 | 7.73 | 6.50 | 5.20 | 9.38 |  |  |  |  | 0.004 µmol/kg | 
5 | CCCN(CCOC)[C@H]1CCc2c(ccc(O)c2O)C1 [Example 4] |  |  |  | 6.44 | 5.15 | 9.22 |  |  |  |  | 0.006 µmol/kg | 7.37

Now from value to compound, other results behind:

Row | Selectivity Ratio (D1 K1/D2 K1) (Dopamine D2 receptor [2]) | Specificity Ratio (a2 A50/D2 A50) (dopamine D2 receptor [3]) | pEC50 (adrenergic α2 receptor [1]; [6]) | pKi (Dopamine D2 receptor [2]; [7]) | pKi (Dopamine D1 receptor; [8]) | pEC50 (dopamine D2 receptor [3]; [9]) | SMILES | pEC50 (adrenergic α2 receptor [1]) | pKi (Dopamine D2 receptor [2]) | pKi (Dopamine D1 receptor) | pEC50 (dopamine D2 receptor [3]) | ED50 [4] | pEC50 (adrenergic α2 receptor [5])
6 | 21 | 158 | 6.91 | 6.58 | 5.25 | 9.11 | CCCN(CCC1CCOC1)[C@H]1CCc2c(O)cccc2C1 (stereo partly shown) [Example 24] |  |  |  |  | 0.020 µmol/kg | 
7 | 46 | 1000 | 7.03 | 7.27 | 5.61 | 10.03 | CCCCCOCCN(CCC)[C@H]1CCc2c(ccc(O)c2O)C1 [Example 10] |  |  |  |  | 0.030 µmol/kg | 
8 | 98 | 537 | 7.06 | 7.29 | 5.30 | 9.79 | CCCN(CCOC1CCCC1)[C@H]1CCc2c(ccc(O)c2O)C1 [Example 6] |  |  |  |  | 0.008 µmol/kg | 
9 | 14 | 6310 | 5.76 | 6.96 | 5.82 | 9.56 | CCCN(CCC1CCCO1)[C@H]1CCc2c(O)cccc2C1 (stereo partly shown) [Example 19] |  |  |  |  | 0.020 µmol/kg | 
